Experimental findings from patent US8318812B2, “Therapeutic agents for the treatment of lymphoid malignancies” (The Ohio State University Research Foundation, priority 2006, dated 2012) are described below.

What all share (format): cell-based, Human
Test [1] concerns ERK1/2. Kind of test: Western blot of ERK1/2 phosphorylation in Mino cells. As to the method: Binding of FTY720 accelerates homing of peripheral lymphocytes to lymph node and activation of […] leads to extracellular signal-related kinase 1/2 (ERK1/2) phosphorylation. To determine if FTY720 influenced phosphorylation status of ERK-1, Mino cells were treated with FTY720 and the ERK1/2 phosphorylation status was analyzed by westernblot analysis using phospho ERK-1/2 and ERK1/2 antibodies. […] Similar FTY720 induced time dependent phosphorylation of ERK1/2 was also observed in Jeko cell line (Data not shown). FTY720 induced activation Ras-Raf-MAP kinase signaling pathway resulting in activation of serine/threonine kinase may contribute to ERK1/2 phosphorylation. Consistent with hypothesis ERK1/2 phosphorylation has been reported to occur in cells treated with Sphingosie 1-phosphate, that shares structural similarity to FTY72014. The role of FTY720 induced Erk1/2 phosphorylation in either toxicity, deregulation of the proteins such as Cyclin D1 or Akt and/or accumulation cells in G1 with concomitant decrease in S phase remains to be tested. Nevertheless these studies have identified Cyclin D1 and Akt proteins as two potential biomarkers for FTY720 responsiveness in MCL patient cells.

In test [2] the test system is Akt. Put plainly: Western blot of p-Akt and Akt in primary MCL cells. As to the method: Primary MCL cells were isolated from PBMC (with informed patient consent under a protocol approved by IRB) as described before. All the MCL patients were identified as outlined by the World Health Organization (WHO) classification. Human mantle cell lymphoma patient cell lines (Mino and Jeko) were obtained from Dr. Raymond Lai. Primary cells or MCL cell lines were incubated in RPMI 1640 media, supplemented with 10%-20% heat-inactivated fetal bovine serum, 2 mM L-glutamine and penicillin (100 U/mL)/streptomycin ([…]) at 37° C. in an atmosphere of 5% CO2. FTY720 was synthesized as previously described. Toxicity was determined by flow cytometry using Annexin-V-FITC and Propidium Iodide (PI) staining. Apoptotic cells were identified as Annexin-V+ and/or PI+ cells. Cells excluding both FITC and PI were considered viable. Western Blotting was performed as described previously using indicated antibodies. […]
FTY720 induced apoptosis is associated with down-modulation of Cyclin D1 and Akt. […] To determine if the FTY720 induced apoptosis is mediated through modulation of these targets relevant to the pathogenesis of the disease, we evaluated the effect of FTY720 on levels of Cyclin D1, p-Akt and Akt proteins by Wester Blotting analysis using specific antibodies in primary MCL cells and cell lines. […]

The test system of test [3] is PP2A. Kind of test: PP2A activity (malachite green phosphatase assay) in lysates of CLL cells. The conditions noted are these: 10 uM FTY720. As to the method: PP2A Activity: The protein phosphatase activity of total cellular lysate was determined by measuring the generation of free PO4 from the threonine phosphopeptide using the malachite green-phosphate complex assay as described by the manufacturer (Upstate, Charlottesville, […].). Cell lysates were prepared in a low detergent lysis buffer (1% Nonidet P-40, 10 mM HEPES, 0.5M NaCl, 10% Glycerol, 1 mM PMSF, 5 mM Benzamidine, 10 μg/ml leupeptin). The phosphatase assay was performed in a PP2A-specific reaction buffer (Upstate) using 750 μM phosphopeptide substrate. After 30-min incubation at 30° C. malachite dye was added, and free phosphate was measured by optical density at 650 nm. To avoid variability among different immunoprecipitated samples, the phosphatase activities were normalized with the amount of PP2A immunoprecipitated, as detected and quantified by western blot analysis of each treatment group.
In order to determine if FTY720 induced activation of PP2A enzyme in CD19^+ B cells from CLL patients were treated with 10 uM FTY720 for 0, 1, 2, 3, 4 and 15 hrs and the PP2A activity in the lysates were quantified using a functional assay following immunoprecipitation of PP2A enzyme. As reported previously in other systems, FTY720 induced a consistent 2-3 fold increase in PP2A activation with the peak response observed at 4 hour post treatment (FIG. 6a). […] Similar phenomenon was also observed in Ramos B cell line. FTY720 induced activation of PP2A in Ramos cell line as early as 3 hours and this induced PP2A activity was inhibited by okadaic acid (FIG. 7a-b).

Consider `CCCCCCCCc1ccc(CCC(N)(CO)CO)cc1.Cl` [FTY720, 2-Amino-2-[2-(4-octylphenyl)ethyl]propane 1,3-diol hydrochloride], for which, in test [1], the “earliest time of ERK1/2 phosphorylation” value turned out to be 2 h and the “time of maximal ERK1/2 phosphorylation” value was 4 h. In test [2], the p-Akt level entry is “decrease in p-Akt”. Besides, in test [3], the “increase in PP2A activation” value is 2-3 fold and the “time of peak PP2A response” value amounted to 4 h.
